Test results taken from patent publication US5856535A, “Aminosterol ester compounds” (priority 1996, dated 1999).
Converted amounts (≈) assume the structure as drawn. Like-named read-outs stand apart in the source and are kept apart here.

Legend:
[1] = system: melanoma cells; experiment: MTT assay for cell number; format: cell-based; settings: for minimal effective concentration: 48 h, Table II, read-out: Minimum Effective Concentration, MTT assay; for IC50: read-out: MTT assay IC50
Method: In Table V, several aminosterol esters show efficacy in killing melanoma cells in the MTT assay.
The MTT assay for cell number is performed as follows. Cells are counted on a hemocytometer and diluted to a concentration of approx. 10,000 cells/well (55,000 cells/ml×0.18 ml). Cells are then plated in a 96 well microtiter plate and allowed to attach overnight. The next day, compounds are serially diluted from 1000 to 15.6 μg/ml and run in duplicate. 20 μl of each dilution are transferred to the pre-seeded microtiter plates. The final concentrations are 100 to 1.56 μg/ml. The plates are then incubated for 48 hours at 37° C. in 5% CO2. After 48 hours, MTT solution is added. The plate is re-incubated for 4 hours. Readings are done by removing all but 30 μl of media and MTT solution and dissolving the formazan crystals with DMSO. The formazan is dissolved by mixing on a rotating plate at low speed for about 30 minutes. Absorbance of converted dye is measured at a wavelength of 560 nm with background subtraction at 630 nm. The percent survival is determined by a comparison between the mean absorbance of the duplicate test lanes and the growth control.

[2] = system: Xenopus laevis Stages 59-60 tadpoles; experiment: tadpole assay; format: in vivo; settings: 10 μg/ml where stated
[3] = inhibition of MSI-1436 binding; settings: 3H-MSI-1436 at 20 μg/mL
[4] = system: splenocytes; experiment: mitogen proliferation assay (splenocytes of treated mice, Con A); format: in vivo; settings: for Rel. potency to MSI-1436, Mitogen Proliferation Assay: 10 mg/kg iv
Method: For the attached Tables, the mitogen proliferation assay was performed by treating mice (male or female) with various amounts of the aminosterol test compounds. Some time later (typically between 2 hours and 14 days), the mice are sacrificed and their spleens removed. Splenocytes are harvested and cultured in the presence of between 1-10 μg/ml of Con A (Sigma) for 48 hours. See James Morgan, "Monoclonal Antibody Production," Modern Methods in Pharmacology, pp. 29-67, eds., Spector and Back, 1988. This excerpt is entirely incorporated herein by reference. Cell proliferation is monitored either by direct cell counting or by measurement of the incorporation of radioactive thymidine.

[5] = system: chick embryo vitelline capillaries; experiment: chick embryo vitelline capillary regression assay; format: in vivo; set-up: key to Chick embryo vitelline capillary regression: +: Vascular reactivity; 0: No vascular reactivity; +/-: Equivocal reactivity; settings: for Chick embryo vitelline capillary regression: 60 minutes; for effect on vitelline capillaries (in words): 3- to 5-day chick embryo
Method: Using the chick embryo vitelline capillaries assay, various aminosterol compounds were tested for their ability to induce capillary regression. Each compound was applied in 0.1 ml of 15% Ficol 400 and PBS onto the embryo, and vascular regression was assessed after 60 minutes. These tests were conducted by the chorioallantoic membrane anti-angiogenesis assay by applying the material to be assayed to 3 day old fertilized chick embryos in the manner described by Wilks et al., "Inhibition of Angiogenesis With Combination Angiostatic Steroids and Suramin," Radiation Biology, Vol. 60, Nos. 1/2, 1991, pp. 73-77, which article is entirely incorporated herein by reference.
The 3-day chick embryo consists of an embryonic disc from which numerous vessels emerge and return, forming a "figure 8"-shaped structure--the embryo in the center with vascular loops extending outward over both poles. […] Following a lag period of around 15 minutes, the constriction of continuity between capillary and secondary vessels, generally on the "venous" side, was observed. Continued pulsatile blood flow progressed, resulting in a "swelling" of the blind tube, followed by a pinching off of the remaining connection and formation of an enclosed vascular sac resembling a "blood island." This process progressed until only the largest vessels remained intact.

[6] = system: P. aerug; experiment: antibiotic activity, P. aerug; format: cell-based
[7] = system: S. aureus; experiment: antibiotic activity, S. aureus; format: cell-based; settings: Staphylococcus aureus

COC(=O)CCC(C)[C@H]1CCC2C3CC[C@@H]4C[C@H](NCCN)CC[C@]4(C)C3C[C@H](O)[C@@]21C (stereo partly shown) [drawing 90]
minimal effective concentration [1]: 2.4 µg/mL

COC(=O)CC[C@@H](C)[C@H]1CC[C@H]2[C@@H]3CC[C@@H]4C[C@H](NCCN)CC[C@]4(C)[C@H]3C[C@H](O)[C@]12C [Compound 416]
effect on embryonic epithelium / epithelial shedding (in words) [2]: functionally similar to compound 1437

COC(=O)CCC(C)[C@H]1CCC2C3C[C@@H](O)[C@H]4C[C@@H](NCCCNCCCCNCCCN)CC[C@]4(C)C3CC[C@@]21C (stereo partly shown)
MTT assay IC50 ([1]; Tables III-V): 14 µg/mL | IC50 ([1]; Tables III-V): 10 µg/mL (≈ 16.9 µM) | % Inhib. of MSI-1436 Binding @ 100 μg/mL [3]: 51% | Rel. potency to MSI-1436, Mitogen Proliferation Assay [4]: 0.43

COC(=O)CC[C@@H](C)[C@H]1CC[C@H]2[C@@H]3C[C@@H](O)[C@H]4C[C@H](NCCN)CC[C@]4(C)[C@H]3CC[C@]12C [Compound 431]
effect on embryonic epithelium / epithelial shedding (in words) [2]: functionally similar to compound 1437

CC(C)CCC[C@@H](C)[C@H]1CC[C@H]2[C@@H]3CC[C@H]4C[C@@H](NCCCNCCCCN)CC[C@]4(C)[C@H]3CC[C@]12C [Compound 303]
Chick embryo vitelline capillary regression ([5]; 1 μg applied): 0

C[C@H](CCC(=O)O)[C@H]1CC[C@H]2[C@@H]3CC[C@H]4C[C@H](NCCCNCCCCN)CC[C@]4(C)[C@H]3CC[C@]12C [Compound 318]
Chick embryo vitelline capillary regression ([5]; 1 μg applied): 0

COC(=O)CCC(C)[C@H]1CCC2C3C(CC[C@@]21C)[C@@]1(C)CC[C@@H](NCCN)C[C@H]1C[C@H]3O (stereo partly shown) [drawing 40]
MIC [6]: 32 µg/mL (≈ 71.3 µM)

COC(=O)CCC(C)[C@H]1CCC2C3C(CC[C@@]21C)[C@@]1(C)CC[C@@H](NCCN)C[C@H]1C[C@H]3O (stereo partly shown) [drawing 70]
minimal effective concentration [1]: 2.6 µg/mL

CC(CCC(=O)O)[C@H]1CCC2C3C(CC[C@@]21C)[C@@]1(C)CC[C@H](NCCCNCCCCNCCCN)C[C@H]1C[C@H]3O (stereo partly shown) [drawing 43]
MIC [6]: 64 µg/mL (≈ 111 µM)

COC(=O)CC[C@@H](C)[C@H]1CC[C@H]2[C@@H]3[C@H](O)C[C@H]4C[C@@H](NCCCNCCCCNCCCN)CC[C@]4(C)[C@H]3CC[C@]12C [Compound 396]
Chick embryo vitelline capillary regression ([5]; 0.001 μg applied): 0 | Chick embryo vitelline capillary regression ([5]; 0.01 μg applied): 0 | Chick embryo vitelline capillary regression ([5]; 0.1 μg applied): 0

C[C@H](CCC(=O)O)[C@H]1CC[C@H]2[C@@H]3[C@H](O)C[C@@H]4C[C@@H](NCCN)CC[C@]4(C)[C@H]3CC[C@]12C [Compound 415]
effect on vitelline capillaries (in words) [5]: especially active

COC(=O)CC[C@@H](C)[C@H]1CC[C@H]2[C@@H]3C[C@@H](O)[C@H]4C[C@@H](NCCN)CC[C@]4(C)[C@H]3CC[C@]12C [Compound 432]
effect on embryonic epithelium / epithelial shedding (in words) [2]: functionally similar to compound 1437

COC(=O)CC[C@@H](C)[C@H]1CC[C@H]2[C@@H]3[C@H](O)C[C@@H]4C[C@@H](NCCN)CC[C@]4(C)[C@H]3CC[C@]12C [Compound 409]
effect on embryonic epithelium / epithelial shedding (in words) [2]: functionally similar to compound 1437

COC(=O)CCC(C)[C@H]1CCC2C3CC[C@H]4C[C@@H](NCCCNCCCCNCCCN)CC[C@]4(C)C3CC[C@@]21C (stereo partly shown) [drawing 75]
minimal effective concentration [1]: 5 µg/mL

CC(CCC(=O)O)[C@H]1CCC2C3C[C@@H](O)[C@H]4C[C@@H](NCCCNCCCCNCCCN)CC[C@]4(C)C3CC[C@@]21C (stereo partly shown)
% Inhib. of MSI-1436 Binding @ 100 μg/mL [3]: -69% | Rel. potency to MSI-1436, Mitogen Proliferation Assay [4]: 0.22

CC(CCC(=O)O)[C@H]1CCC2C3C(CC[C@@]21C)[C@@]1(C)CC[C@@H](NCCCNCCCCN)C[C@@H]1C[C@H]3O (stereo partly shown)
minimal effective concentration [1]: 58.6 µg/mL

C[C@H](CCC(=O)O)[C@H]1CC[C@H]2[C@@H]3CC[C@H]4C[C@@H](NCCCNCCCCN)CC[C@]4(C)[C@H]3CC[C@]12C [Compound 319]
Chick embryo vitelline capillary regression ([5]; 0.001 μg applied): +/- | Chick embryo vitelline capillary regression ([5]; 0.01 μg applied): + | Chick embryo vitelline capillary regression ([5]; 0.1 μg applied): + | Chick embryo vitelline capillary regression ([5]; 1 μg applied): + | Chick embryo vitelline capillary regression ([5]; 10 μg applied): + | effect on vitelline capillaries (in words) [5]: especially active | vascular effect in tadpole (in words) ([2]; about 60 minutes): common vascular occlusive effect

CC(CCC(=O)O)[C@H]1CCC2C3CC[C@H]4C[C@@H](NCCCNCCCCN)CC[C@]4(C)C3CC[C@@]21C (stereo partly shown)
minimal effective concentration [1]: 13.8 µg/mL

COC(=O)CCC(C)[C@H]1CCC2C3CC[C@H]4C[C@H](NCCCNCCCCNCCCN)CC[C@]4(C)C3CC[C@@]21C (stereo partly shown) [drawing 55]
MIC [7]: 4 µg/mL (≈ 6.96 µM)

COC(=O)CCC(C)[C@H]1CCC2C3CC[C@@H]4C[C@H](NCCN)CC[C@]4(C)C3C[C@H](O)[C@@]21C (stereo partly shown) [drawing 109]
IC50 ([1]; Tables III-V): 2.4 µg/mL (≈ 5.35 µM)

COC(=O)CC[C@@H](C)[C@H]1CC[C@H]2[C@@H]3C[C@@H](O)[C@H]4C[C@@H](NCCCN5CCN(CCCN)CC5)CC[C@]4(C)[C@H]3CC[C@]12C [Compound 469]
IC50 [1]: 2 µg/mL (≈ 3.4 µM) | % Inhib. of MSI-1436 Binding @ 100 μg/mL [3]: 110% | Rel. potency to MSI-1436, Mitogen Proliferation Assay [4]: 1.6 | potency in the mitogen proliferation assay (in words) ([4]; mouse, in vivo): higher potency in the mitogen proliferation assay than compound 1436

CC(CCC(=O)O)[C@H]1CCC2C3C(CC[C@@]21C)[C@@]1(C)CC[C@H](NCCCNCCCCNCCCN)C[C@H]1C[C@H]3O (stereo partly shown) [drawing 86]
minimal effective concentration [1]: 18.1 µg/mL

COC(=O)CCC(C)[C@H]1CCC2C3C(CC[C@@]21C)[C@@]1(C)CC[C@H](NCCCNCCCCNCCCN)C[C@H]1C[C@H]3O (stereo partly shown)
IC50 ([1]; Tables III-V): 7.9 µg/mL (≈ 13.4 µM) | % Inhib. of MSI-1436 Binding @ 100 μg/mL [3]: 19%

COC(=O)CCC(C)[C@H]1CCC2C3CC[C@H]4C[C@@H](NCCCNCCCCNCCCN)CC[C@]4(C)C3CC[C@@]21C (stereo partly shown) [drawing 103]
MTT assay IC50 ([1]; Tables III-V): 4 µg/mL | IC50 ([1]; Tables III-V): 5 µg/mL (≈ 8.7 µM) | % Inhib. of MSI-1436 Binding @ 100 μg/mL [3]: -24% | Rel. potency to MSI-1436, Mitogen Proliferation Assay [4]: 0.73

COC(=O)CCC(C)[C@H]1CCC2C3C(CC[C@@]21C)[C@@]1(C)CC[C@H](NCCCNCCCCNCCCN)C[C@@H]1C[C@H]3O (stereo partly shown) [drawing 115]
IC50 ([1]; Tables III-V): 8.1 µg/mL (≈ 13.7 µM) | % Inhib. of MSI-1436 Binding @ 100 μg/mL [3]: 32%

COC(=O)CCC(C)[C@H]1CCC2C3C(CC[C@@]21C)[C@@]1(C)CC[C@@H](NCCCNCCCCNCCCN)C[C@@H]1C[C@H]3O (stereo partly shown)
IC50 ([1]; Tables III-V): 7.8 µg/mL (≈ 13.2 µM) | % Inhib. of MSI-1436 Binding @ 100 μg/mL [3]: 15%

COC(=O)CCC(C)[C@H]1CCC2C3C(CC[C@@]21C)[C@@]1(C)CC[C@@H](NCCCNCCCCN)C[C@H]1C[C@H]3O (stereo partly shown) [drawing 116]
IC50 ([1]; Tables III-V): 12 µg/mL (≈ 22.5 µM) | % Inhib. of MSI-1436 Binding @ 100 μg/mL [3]: 18%

COC(=O)CCC(C)[C@H]1CCC2C3C(CC[C@@]21C)[C@@]1(C)CC[C@H](NCCN)C[C@H]1C[C@H]3O (stereo partly shown)
IC50 ([1]; Tables III-V): 5.3 µg/mL (≈ 11.8 µM)

COC(=O)CCC(C)[C@H]1CCC2C3C(CC[C@@]21C)[C@@]1(C)CC[C@H](NCCCNCCCCNCCCN)C[C@@H]1C[C@H]3O (stereo partly shown) [drawing 35]
MIC [7]: 2 to 4 µg/mL (≈ 3.38 to 6.77 µM)

COC(=O)CCC(C)[C@H]1CCC2C3CC[C@H]4C[C@H](NCCCNCCCCNCCCN)CC[C@]4(C)C3CC[C@@]21C (stereo partly shown) [drawing 84]
minimal effective concentration [1]: 6.8 µg/mL

COC(=O)CCC(C)[C@H]1CCC2C3C[C@@H](O)[C@H]4C[C@@H](NCCN)CC[C@]4(C)C3CC[C@@]21C (stereo partly shown)
IC50 ([1]; Tables III-V): 0.8 µg/mL (≈ 1.78 µM)

COC(=O)CCC(C)[C@H]1CCC2C3CC[C@H]4C[C@H](NCCCNCCCCNCCCN)CC[C@]4(C)C3CC[C@@]21C (stereo partly shown) [drawing 118]
IC50 ([1]; Tables III-V): 13 µg/mL (≈ 22.6 µM) | % Inhib. of MSI-1436 Binding @ 100 μg/mL [3]: 49%

COC(=O)CCC(C)[C@H]1CCC2C3C[C@@H](O)[C@H]4C[C@H](NCCN)CC[C@]4(C)C3CC[C@@]21C (stereo partly shown)
IC50 ([1]; Tables III-V): 2.9 µg/mL (≈ 6.46 µM)

COC(=O)CCC(C)[C@H]1CCC2C3C[C@@H](O)[C@H]4C[C@@H](NCCCNCCCCN)CC[C@]4(C)C3CC[C@@]21C (stereo partly shown)
IC50 ([1]; Tables III-V): 12 µg/mL (≈ 22.5 µM) | % Inhib. of MSI-1436 Binding @ 100 μg/mL [3]: 57%
